Assay results published in patent publication US10995088B2, “Methylamine derivatives as lysysl oxidase inhibitors for the treatment of cancer” (The Institute of Cancer Research: Royal Cancer Hospital, priority 2016, dated 2021).
Structures can show the parent of a compound that is named as a salt.

Key:
[1] = test system: MATN2 in MDA-MB-231 cells; test: MATN2 level in MDA-MB-231 cells (Western blotting); type: cell-based, human; settings: at a much higher concentration than 20 μM
Method: Proteins were extracted from cultured cells using cell lysis buffer (Cell Signalling Technology) with the addition of protease and phosphatase inhibitor cocktails (Pierce). Protein concentrations were measured using Pierce 660 nm protein assay reagent and SpectaMax M5 plate reader. […] Separated proteins were transferred to nitrocellulose membranes using a Trans-Blot turbo transfer system (Bio-Rad). Following blocking with Odyssey blocking buffer (Li-COR), membranes were incubated with two primary antibodies of different species at 4° C. over night. Corresponding fluorescence secondary antibodies (Li-COR) of different excitation and emission wavelengths were used to visualize the protein of interest on an Odyssey CLx infrared imaging system (Li-COR). Quantification of band fluorescent intensity was achieved using Li-COR ImageStudio. The following primary antibodies were used, anti-LOX (Sigma), anti-human MATN2 (R&D), anti-EGFR and anti-pY1068EGFR (Cell Signalling Technology), and anti-GAPDH (Millipore).
LOX inhibitors show significant reduction of MATN2 in MDA-MB-231 cells treated at 20 μM overnight.

MAO-A = MAO-A (Homo sapiens (Human), UniProt P21397); test: Monoamine oxidase A (MAO-A) selectivity assay (MAO-Glo); type: biochemical
[2] = test system: TGF beta signalling (pSMAD2); type: cell-based; settings: leading to MATN2 reduction
MAO-B = MAO-B (Homo sapiens (Human), UniProt P27338); test: Monoamine oxidase B (MAO-B) selectivity assay (MAO-Glo); type: biochemical
DAO = DAO (Sus scrofa, UniProt Q9TRC7); settings: read-out: DAO IC50
in vivo [3] = settings: female, mouse, po, 50 mg/kg
in vivo [4] = settings: rat, po, 20 mg/kg

DAO, sequence (Q9TRC7 25-755 limits assumed): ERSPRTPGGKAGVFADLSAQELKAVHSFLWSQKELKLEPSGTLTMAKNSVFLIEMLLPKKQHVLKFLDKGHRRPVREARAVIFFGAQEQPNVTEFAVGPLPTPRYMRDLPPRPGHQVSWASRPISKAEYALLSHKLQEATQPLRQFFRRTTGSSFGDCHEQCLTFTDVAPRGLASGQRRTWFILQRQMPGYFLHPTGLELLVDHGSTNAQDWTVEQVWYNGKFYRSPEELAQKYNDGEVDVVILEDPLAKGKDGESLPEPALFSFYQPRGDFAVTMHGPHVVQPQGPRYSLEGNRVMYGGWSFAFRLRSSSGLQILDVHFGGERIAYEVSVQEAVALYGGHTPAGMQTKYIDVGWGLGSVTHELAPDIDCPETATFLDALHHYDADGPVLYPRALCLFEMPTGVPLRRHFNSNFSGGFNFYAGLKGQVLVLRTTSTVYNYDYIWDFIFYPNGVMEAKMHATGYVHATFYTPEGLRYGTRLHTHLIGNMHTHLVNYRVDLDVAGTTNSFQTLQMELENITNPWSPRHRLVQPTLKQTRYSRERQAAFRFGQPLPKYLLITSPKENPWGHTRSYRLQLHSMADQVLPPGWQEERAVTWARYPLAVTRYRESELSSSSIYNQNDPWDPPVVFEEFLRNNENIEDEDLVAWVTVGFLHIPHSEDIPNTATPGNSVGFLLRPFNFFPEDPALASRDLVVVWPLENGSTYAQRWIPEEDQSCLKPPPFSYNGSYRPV
MAO-A, sequence (P21397 whole entry): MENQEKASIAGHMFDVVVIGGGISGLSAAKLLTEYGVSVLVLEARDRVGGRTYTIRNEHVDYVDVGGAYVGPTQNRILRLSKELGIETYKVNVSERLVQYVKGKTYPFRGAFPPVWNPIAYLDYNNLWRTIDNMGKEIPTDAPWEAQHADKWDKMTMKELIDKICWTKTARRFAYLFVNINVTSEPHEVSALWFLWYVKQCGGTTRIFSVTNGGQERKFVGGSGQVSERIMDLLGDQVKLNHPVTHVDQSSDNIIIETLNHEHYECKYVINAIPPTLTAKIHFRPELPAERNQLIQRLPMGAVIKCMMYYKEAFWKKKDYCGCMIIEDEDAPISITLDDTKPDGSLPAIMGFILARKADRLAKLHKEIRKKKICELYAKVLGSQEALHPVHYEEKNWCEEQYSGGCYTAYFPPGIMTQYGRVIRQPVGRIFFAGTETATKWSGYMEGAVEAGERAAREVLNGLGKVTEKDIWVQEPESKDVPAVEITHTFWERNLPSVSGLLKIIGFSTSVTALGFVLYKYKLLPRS
MAO-B, sequence (P27338 whole entry): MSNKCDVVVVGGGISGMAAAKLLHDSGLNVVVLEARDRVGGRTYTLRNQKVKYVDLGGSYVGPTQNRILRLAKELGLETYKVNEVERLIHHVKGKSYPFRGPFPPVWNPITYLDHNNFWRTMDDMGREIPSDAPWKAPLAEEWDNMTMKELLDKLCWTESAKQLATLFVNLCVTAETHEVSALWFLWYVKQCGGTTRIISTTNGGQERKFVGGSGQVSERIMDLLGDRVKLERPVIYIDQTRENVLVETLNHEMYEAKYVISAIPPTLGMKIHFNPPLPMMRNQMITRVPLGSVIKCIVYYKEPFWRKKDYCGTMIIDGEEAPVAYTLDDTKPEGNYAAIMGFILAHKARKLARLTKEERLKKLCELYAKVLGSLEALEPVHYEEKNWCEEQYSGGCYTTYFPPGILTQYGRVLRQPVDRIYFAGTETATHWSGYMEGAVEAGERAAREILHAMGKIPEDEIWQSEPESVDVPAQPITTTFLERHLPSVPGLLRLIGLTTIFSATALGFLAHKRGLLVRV

N#CCCN [BAPN, beta-aminopropionitrile]
reduction of MATN2 [1]: The same effect was seen | MAO-A inhibition (MAO-A): neither inhibits | TGF beta signalling as indicated by pSMAD2 [2]: increased | MAO-B inhibition (MAO-B): neither inhibits

Cc1ccc(-c2cc(S(=O)(=O)c3ccc(CN)s3)ccc2S(C)(=O)=O)cc1 [Example 82, (5-((4′-Methyl-6-(methylsulfonyl)-[1,1′-biphenyl]-3-yl)sulfonyl)thiophen-2-yl)methanamine hydrochloride]
IC50 (DAO): > 100 µM | bioavailability (in vivo [3]): 74%

CCc1cc(-c2ccc[n+]([O-])c2)cc(S(=O)(=O)c2cnc(CN)s2)c1 [Example 113, 3-(3-((2-(Aminomethyl)thiazol-5-yl)sulfonyl)-5-ethylphenyl)pyridine 1-oxide hydrochloride]
IC50 (DAO): > 100 µM

Cn1cc(-c2cccc(S(=O)(=O)c3cnc(CN)s3)c2)cn1 [Example 116, (5-((3-(1-Methyl-1H-pyrazol-4-yl)phenyl)sulfonyl)thiazol-2-yl)methanamine]
IC50 (DAO): > 100 µM

CN(C)C(=O)c1cc(-c2ccccc2)cc(S(=O)(=O)c2cnc(CN)s2)c1 [Example 125, 5-((2-(Aminomethyl)thiazol-5-yl)sulfonyl)-N,N-dimethyl-[1,1′-biphenyl]-3-carboxamide dihydrochloride]
IC50 (DAO): > 100 µM

NCc1ncc(S(=O)(=O)c2cc(C(=O)O)cc(-c3ccccc3)c2)s1 [Example 126, 5-((2-(Aminomethyl)thiazol-5-yl)sulfonyl)-[1,1′-biphenyl]-3-carboxylic acid ditrifluoroacetate]
bioavailability (in vivo [4]): 33% | bioavailability (in vivo [3]): 67%

Cn1cc(-c2cc(F)cc(S(=O)(=O)c3cnc(CN)s3)c2)cn1 [Example 131, (5-((3-Fluoro-5-(1-methyl-1H-pyrazol-4-yl)phenyl)sulfonyl)thiazol-2-yl)methanamine trihydrochloride]
IC50 (DAO): > 100 µM

Cn1cc(-c2cc(C(=O)O)cc(S(=O)(=O)c3cnc(CN)s3)c2)cn1 [Example 150, 3-((2-(Aminomethyl)thiazol-5-yl)sulfonyl)-5-(1-methyl-1H-pyrazol-4-yl)benzoic acid tihydrochloride]
IC50 (DAO): > 100 µM
